The target of the assay is T1, APOL1 (Homo sapiens, UniProt O14791).
T1 sequence (O14791 1-398 S342G/I384M): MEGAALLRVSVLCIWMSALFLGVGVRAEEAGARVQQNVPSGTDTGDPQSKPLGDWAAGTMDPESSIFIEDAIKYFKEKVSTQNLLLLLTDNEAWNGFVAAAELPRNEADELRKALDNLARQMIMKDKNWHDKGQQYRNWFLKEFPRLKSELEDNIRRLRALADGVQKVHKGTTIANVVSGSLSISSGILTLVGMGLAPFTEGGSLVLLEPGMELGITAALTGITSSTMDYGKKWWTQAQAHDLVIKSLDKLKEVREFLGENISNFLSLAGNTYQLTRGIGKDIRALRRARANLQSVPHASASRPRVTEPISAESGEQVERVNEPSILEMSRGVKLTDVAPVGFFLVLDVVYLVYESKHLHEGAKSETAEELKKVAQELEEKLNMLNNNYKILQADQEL
Briefly: MultiTox-Fluor Multiplex Cytotoxicity Assay in tet-inducible APOL1 T-REx-HEK293 cells (cell rescue, ratio of dead to live cells). In kind it is cell-based. The following applies: tet-inducible transgenic APOL1 T-REx-HEK293 cell lines, 50 ng/mL tet, 24 hours; read-out: IP50 (i.e., IC50 for cell proliferation). In outline: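 T-REx-HEK293 cells with tet-inducible APOL1 were treated with compound (10 μM top, 10-point 3-fold dilution, duplicate) plus 50 ng/mL tetracycline for 24 h at 37° C, in DMEM with 2% tet-free FBS. MultiTox-Fluor protease signals gave a dead/live ratio, normalized to no tet (100% viability) and tet alone (0%).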

Results on 45 compounds are retold here after patent US20250171459A1, “2-METHYL-4',5'-DIHYDROSPIRO[PIPERIDINE-4,7'-THIENO[2,3-C]PYRAN] DERIVATIVES AS INHIBITORS OF APOL1 AND METHODS OF USING SAME” (Vertex Pharmaceuticals Incorporated, priority 2022, published 2025).

Take `C[C@H]1C[C@@]2(CCN1C[C@H]1C[C@@H](NS(=O)(=O)CC#N)C1)OCCc1cc(CC(F)F)sc12` [Compound 549, 1-cyano-N-((1R,3s)-3-(((2S,4R)-2′-(2,2-difluoroethyl)-2-methyl-4′,5′-dihydrospiro[piperidine-4,7′-thieno[2,3-c]pyran]-1-yl)methyl)cyclobutyl)methanesulfonamide]: the IC50 is less than 100 nM.
As for `C[C@H]1C[C@@]2(CCN1C[C@H]1C[C@@H](NC(=O)C3CC(F)(F)C3)C1)OCCc1cc(CC(F)F)sc12` [Compound 550], the figure is less than 100 nM.
For `C[C@H]1C[C@@]2(CCN1C[C@H]1C[C@@H](NC(=O)C3CC3(F)F)C1)OCCc1cc(CC(F)F)sc12` (stereo partly drawn) [Compound 551], the IC50 was less than 100 nM.
As for `C[C@H]1C[C@@]2(CCN1C[C@H]1C[C@@H](NS(=O)(=O)C3CC3)C1)OCCc1cc(CC(F)F)sc12` [Compound 552], the figure is less than 100 nM; as for `CCS(=O)(=O)N[C@H]1C[C@@H](CN2CC[C@]3(C[C@@H]2C)OCCc2cc(CC(F)F)sc23)C1` [Compound 553], less than 100 nM; as for `COC(=O)N[C@H]1C[C@@H](CN2CC[C@]3(C[C@@H]2C)OCCc2cc(CC(F)F)sc23)C1` [Compound 554], less than 100 nM.
For `Cc1cc(C(=O)N[C@H]2C[C@@H](CN3CC[C@]4(C[C@@H]3C)OCCc3cc(CC(F)F)sc34)C2)on1` [Compound 555], the IC50 is less than 100 nM.
As for `C[C@H]1C[C@@]2(CCN1C[C@H]1C[C@@H](NC(=O)C3CC3)C1)OCCc1cc(CC(F)F)sc12` [Compound 556], the figure is less than 100 nM.
As for `C[C@H]1C[C@@]2(CCN1C[C@H]1C[C@@H](NC(=O)C3CCC3)C1)OCCc1cc(CC(F)F)sc12` [Compound 557], the figure is less than 100 nM; as for `CC(=O)N[C@H]1C[C@@H](CN2CC[C@]3(C[C@@H]2C)OCCc2cc(CC(F)F)sc23)C1` [Compound 558], less than 100 nM; as for `C[C@H]1C[C@@]2(CCN1Cc1cnn(CCS(C)(=O)=O)c1)OCCc1cc(CC(F)F)sc12` [Compound 559, (2′S, 7R)-2-(2,2-difluoroethyl)-2′-methyl-1′-[[1-(2-methylsulfonylethyl)pyrazol-4-yl]methyl]spiro[4,5-dihydrothieno[2,3-c]pyran-7,4′-piperidine]], less than 100 nM.
With `C[C@H]1C[C@@]2(CCN1Cc1ncc(NC(C)(C)CO)cn1)OCCc1cc(CC(F)F)sc12` [Compound 560], the IC50 was less than 100 nM.
As for `C[C@H]1C[C@@]2(CCN1Cc1cnn(CC(C)(CO)CO)c1)OCCc1cc(CC(F)F)sc12` [Compound 561, 2-[[4-[[(2′S, 7R)-2-(2,2-difluoroethyl)-2′-methyl-spiro[4,5-dihydrothieno[2,3-c]pyran-7,4′-piperidine]-1′-yl]methyl]pyrazol-1-yl]methyl]-2-methyl-propane-1,3-diol], the figure is less than 100 nM; as for `C[C@H]1C[C@@]2(CCN1Cc1cc[nH]n1)OCCc1cc(CC(F)F)sc12` [Compound 562], less than 100 nM; as for `C[C@H]1C[C@@]2(CCN1Cc1cnn(CCO)c1)OCCc1cc(CC(F)F)sc12` [Compound 563], less than 100 nM.
As for `C[C@H]1C[C@@]2(CCN1Cc1ccc3c(c1)n(C)c(=O)n3C)OCCc1cc(CC(F)F)sc12` [Compound 564], the IC50 is less than 100 nM.
Turning to `C[C@H]1C[C@@]2(CCN1Cc1cnn(C)c1)OCCc1cc(CC(F)F)sc12` [Compound 565], the IC50 was less than 100 nM.
The value for `C[C@H]1C[C@@]2(CCN1Cc1cn(C)nn1)OCCc1cc(CC(F)F)sc12` [Compound 566] was less than 100 nM; that for `C[C@H]1C[C@@]2(CCN1Cc1cncnc1)OCCc1cc(CC(F)F)sc12` [Compound 567] was less than 100 nM; that for `C[C@H]1C[C@@]2(CCN1CC1CC1)OCCc1cc(CC(F)F)sc12` [Compound 568] was less than 100 nM.
As for `C[C@H]1C[C@@]2(CCN1Cc1ccnnc1)OCCc1cc(CC(F)F)sc12` [Compound 569], the IC50 was less than 100 nM.
As for `C[C@H]1C[C@@]2(CCN1Cc1cccc(=O)[nH]1)OCCc1cc(CC(F)F)sc12` [Compound 570], the figure is 100 to 500 nM; as for `C[C@H]1C[C@@]2(CCN1Cc1ccnn1C)OCCc1cc(CC(F)F)sc12` [Compound 571], 100 to 500 nM; as for `CCN1CC[C@]2(C[C@@H]1C)OCCc1cc(CC(F)F)sc12` [Compound 572], 100 to 500 nM.
For the compound `C[C@H]1C[C@@]2(CCN1Cc1cn(C)cn1)OCCc1cc(CC(F)F)sc12` [Compound 573], the IC50 lay within 100 to 500 nM.
As for `C[C@H]1C[C@@]2(CCN1Cc1cccn(C)c1=O)OCCc1cc(CC(F)F)sc12` [Compound 574], the figure is 500 to 1000 nM; as for `C[C@H]1C[C@@]2(CCN1C1COC1)OCCc1cc(CC(F)F)sc12` [Compound 575], 500 to 1000 nM.
The value for `C[C@H]1C[C@@]2(CCN1CC1CCC1)OCCc1cc(CC(F)F)sc12` [Compound 576] was 100 to 500 nM; that for `C[C@H]1C[C@@]2(CCN1Cc1ccc[nH]c1=O)OCCc1cc(CC(F)F)sc12` [Compound 577] was 100 to 500 nM.
The value for `C[C@H]1C[C@@]2(CCN1Cc1ccn(C)n1)OCCc1cc(CC(F)F)sc12` [Compound 578] was less than 100 nM.
As for `C[C@H]1C[C@@]2(CCN1Cc1ccon1)OCCc1cc(CC(F)F)sc12` [Compound 579], the IC50 was less than 100 nM.
As for `C[C@H]1C[C@@]2(CCN1Cc1ncco1)OCCc1cc(CC(F)F)sc12` [Compound 580], the figure is 100 to 500 nM.
Turning to `CC(C)CN1CC[C@]2(C[C@@H]1C)OCCc1cc(CC(F)F)sc12` [Compound 581], the IC50 fell in the range of 100 to 500 nM.
Regarding `C[C@H]1C[C@@]2(CCN1CCC(F)(F)F)OCCc1cc(CC(F)F)sc12` [Compound 582], the IC50 was in the range of 500 to 1000 nM.
As for `C[C@H]1C[C@@]2(CCN1CC1CCOC1)OCCc1cc(CC(F)F)sc12` (stereo partly drawn) [Compound 583], the IC50 was in the range of 100 to 500 nM.
Regarding `Cc1cc(CN2CC[C@]3(C[C@@H]2C)OCCc2cc(CC(F)F)sc23)no1` [Compound 584], the IC50 was less than 100 nM.
As for `C[C@H]1C[C@@]2(CCN1CC1(C)COC1)OCCc1cc(CC(F)F)sc12` [Compound 585], the IC50 lay in the range of 100 to 500 nM.
As for `C[C@H]1C[C@@]2(CCN1CC1CCCO1)OCCc1cc(CC(F)F)sc12` (stereo partly drawn) [Compound 586], the figure is 500 to 1000 nM; as for `C[C@H]1C[C@@]2(CCN1Cc1cncn1C)OCCc1cc(CC(F)F)sc12` [Compound 587], 100 to 500 nM; as for `C[C@H]1C[C@@]2(CCN1Cc1cc(F)c[nH]c1=O)OCCc1cc(CC(F)F)sc12` [Compound 588], 500 to 1000 nM.
The value for `C[C@H]1C[C@@]2(CCN1Cc1ncccc1F)OCCc1cc(CC(F)F)sc12` [Compound 589] was 500 to 1000 nM; that for `Cc1c[nH]c(=O)c(CN2CC[C@]3(C[C@@H]2C)OCCc2cc(CC(F)F)sc23)c1` [Compound 590] was 500 to 1000 nM.
The value for `C[C@H]1C[C@@]2(CCN1C1CC(O)C1)OCCc1cc(CC(F)F)sc12` (stereo partly drawn) [Compound 591] was 500 to 1000 nM; that for `C[C@H]1C[C@@]2(CCN1Cc1nccn1C)OCCc1cc(CC(F)F)sc12` [Compound 592] was 500 to 1000 nM.
In the case of `COc1ncc(CN2CC[C@]3(C[C@@H]2C)OCCc2cc(CC(F)F)sc23)c(OC)n1` [Compound 593], the IC50 is less than 100 nM.
